# Literature values as cited in PubChem BioAssay AID1259409 (Chemical Carcinogenesis Research Information System (CCRIS), 2018).
# Tested on: rodent chemically induced tumor inhibition, incidence and multiplicity
# Experiment: CCRIS tumor inhibitor studies
# Conditions: Dose [Inhibitor]: 0, Route [Inhibitor]: ORAL, Promoter: NONE USED
compound,measurement,setting,value
Cc1c(-c2cnccn2)ssc1=S,"tumour outcome (control, treated, inhibition, significance)","Carcinogen: 2-AMINO-1-METHYL-6-PHENYLIMIDAZO[4,5-B]PYRIDINE, 105650-23-5, 200 PPM IN DIET FOR 52 WK (STUDY DURATION: 52 WK), Species: RAT, Strain/Sex: F344/MALE, Target Tissue: Type of Lesion: LYMPHATIC SYSTEM: LYMPHOMA, Dose [Carcinogen]: 400 PPM IN DIET FOR 10 WK THEN 200 PPM TO WK 14 FOLLOWED BY 100 PPM FOR DURATION OF STUDY","75%, 6%, 92%, not calculated"
same,"tumour outcome (control, treated, inhibition, significance)","Carcinogen: 2-AMINO-1-METHYL-6-PHENYLIMIDAZO[4,5-B]PYRIDINE, 105650-23-5, 400 PPM IN DIET FOR 52 WK (STUDY DURATION: 52 WK), Species: RAT, Strain/Sex: F344/MALE, Target Tissue: Type of Lesion: LYMPHATIC SYSTEM: LYMPHOMA, Dose [Carcinogen]: 400 PPM IN DIET FOR 10 WK THEN 200 PPM TO WK 14 FOLLOWED BY 100 PPM FOR DURATION OF STUDY","75%, 0%, 100%, not calculated"
same,"tumour outcome (control, treated, inhibition, significance)","Carcinogen: 4-(METHYLNITROSAMINO)-1-(3-PYRIDYL)-1-BUTANONE, 64091-91-4, 0.25 G/KG DIET (EFFECTIVE DOSE 3.31 UMOL/D) BEGINNING 2 WK PRIOR TO CARCINOGEN TREATMENT AND CONTINUING FOR DURATION, Species: MOUSE, Strain/Sex: STRAIN-A/FEMALE, Target Tissue: Type of Lesion: LUNG: TUMORS, Dose [Carcinogen]: 9.0-9.2 MG/MOUSE (TOTAL DOSE) IN DRINKING WATER ADMINISTERED OVER 7 WK","28/28 (100%), 25/25 (100%), 0%, not significant"
same,"tumour outcome (control, treated, inhibition, significance)","Carcinogen: AZOXYMETHANE, 25843-45-2, 200 PPM IN DIET 7 WK PRIOR TO CARCINOGEN TREATMENT AND CONTINUING FOR STUDY DURATION (STUDY DURATION: 59 WK), Species: RAT, Strain/Sex: F344/MALE, Target Tissue: Type of Lesion: COLON: ADENOCARCINOMA, Dose [Carcinogen]: 15 MG/KG 1/WK FOR 2 WK","72%, 47%, 35%, p<0.05"
same,"tumour outcome (control, treated, inhibition, significance)","Carcinogen: AZOXYMETHANE, 25843-45-2, 200 PPM IN DIET 7 WK PRIOR TO CARCINOGEN TREATMENT AND CONTINUING FOR STUDY DURATION (STUDY DURATION: 59 WK), Species: RAT, Strain/Sex: F344/MALE, Target Tissue: Type of Lesion: COLON: ADENOMA, Dose [Carcinogen]: 15 MG/KG 1/WK FOR 2 WK","14%, 6%, 57%, p<0.05"
same,"tumour outcome (control, treated, inhibition, significance)","Carcinogen: AZOXYMETHANE, 25843-45-2, 200 PPM IN DIET 7 WK PRIOR TO CARCINOGEN TREATMENT AND CONTINUING FOR STUDY DURATION (STUDY DURATION: 59 WK), Species: RAT, Strain/Sex: F344/MALE, Target Tissue: Type of Lesion: SMALL INTESTINE: ADENOCARCINOMA, Dose [Carcinogen]: 15 MG/KG 1/WK FOR 2 WK","50%, 16%, 68%, p<0.001"
same,"tumour outcome (control, treated, inhibition, significance)","Carcinogen: AZOXYMETHANE, 25843-45-2, 200 PPM IN DIET BEGINNING 2 WK PRIOR TO CARCINOGEN TREATMENT AND CONTINUING FOR 3 D POST LAST CARCINOGEN DOSE FOLLOWE, Species: RAT, Strain/Sex: F344/MALE, Target Tissue: Type of Lesion: COLON: INVASIVE ADENOCARCINOMA, Dose [Carcinogen]: 15 MG/KG 1/WK FOR 2 WK","33%, 3%, 91%, p<0.001"
same,"tumour outcome (control, treated, inhibition, significance)","Carcinogen: AZOXYMETHANE, 25843-45-2, 200 PPM IN DIET BEGINNING 2 WK PRIOR TO CARCINOGEN TREATMENT AND CONTINUING FOR 3 D POST LAST CARCINOGEN DOSE FOLLOWE, Species: RAT, Strain/Sex: F344/MALE, Target Tissue: Type of Lesion: COLON: NONINVASIVE ADENOCARCINOMA, Dose [Carcinogen]: 15 MG/KG 1/WK FOR 2 WK","53%, 43%, 19%, not significant"
same,"tumour outcome (control, treated, inhibition, significance)","Carcinogen: AZOXYMETHANE, 25843-45-2, 200 PPM IN DIET BEGINNING 2 WK PRIOR TO CARCINOGEN TREATMENT AND CONTINUING FOR 3 D POST LAST CARCINOGEN DOSE FOLLOWE, Species: RAT, Strain/Sex: F344/MALE, Target Tissue: Type of Lesion: SMALL INTESTINE: INVASIVE ADENOCARCINOMA, Dose [Carcinogen]: 15 MG/KG 1/WK FOR 2 WK","22%, 7%, 68%, p<0.05"
same,"tumour outcome (control, treated, inhibition, significance)","Carcinogen: AZOXYMETHANE, 25843-45-2, 200 PPM IN DIET BEGINNING 2 WK PRIOR TO CARCINOGEN TREATMENT AND CONTINUING FOR 3 D POST LAST CARCINOGEN DOSE FOLLOWE, Species: RAT, Strain/Sex: F344/MALE, Target Tissue: Type of Lesion: SMALL INTESTINE: NONINVASIVE ADENOCARCINOMA, Dose [Carcinogen]: 15 MG/KG 1/WK FOR 2 WK","6%, 3%, 50%, not significant"
same,"tumour outcome (control, treated, inhibition, significance)","Carcinogen: AZOXYMETHANE, 25843-45-2, 200 PPM IN DIET BEGINNING 3 D POST LAST CARCINOGEN DOSE AND CONTINUING FOR DURATION OF STUDY (STUDY DURATION: 56 WK), Species: RAT, Strain/Sex: F344/MALE, Target Tissue: Type of Lesion: COLON: INVASIVE ADENOCARCINOMA, Dose [Carcinogen]: 15 MG/KG 1/WK FOR 2 WK","33%, 0%, 100%, p<0.001"
same,"tumour outcome (control, treated, inhibition, significance)","Carcinogen: AZOXYMETHANE, 25843-45-2, 200 PPM IN DIET BEGINNING 3 D POST LAST CARCINOGEN DOSE AND CONTINUING FOR DURATION OF STUDY (STUDY DURATION: 56 WK), Species: RAT, Strain/Sex: F344/MALE, Target Tissue: Type of Lesion: COLON: NONINVASIVE ADENOCARCINOMA, Dose [Carcinogen]: 15 MG/KG 1/WK FOR 2 WK","53%, 73%, -38%, not significant"
same,"tumour outcome (control, treated, inhibition, significance)","Carcinogen: AZOXYMETHANE, 25843-45-2, 200 PPM IN DIET BEGINNING 3 D POST LAST CARCINOGEN DOSE AND CONTINUING FOR DURATION OF STUDY (STUDY DURATION: 56 WK), Species: RAT, Strain/Sex: F344/MALE, Target Tissue: Type of Lesion: SMALL INTESTINE: INVASIVE ADENOCARCINOMA, Dose [Carcinogen]: 15 MG/KG 1/WK FOR 2 WK","22%, 20%, 9%, not significant"
same,"tumour outcome (control, treated, inhibition, significance)","Carcinogen: AZOXYMETHANE, 25843-45-2, 200 PPM IN DIET BEGINNING 3 D POST LAST CARCINOGEN DOSE AND CONTINUING FOR DURATION OF STUDY (STUDY DURATION: 56 WK), Species: RAT, Strain/Sex: F344/MALE, Target Tissue: Type of Lesion: SMALL INTESTINE: NONINVASIVE ADENOCARCINOMA, Dose [Carcinogen]: 15 MG/KG 1/WK FOR 2 WK","6%, 3%, 50%, not significant"
same,"tumour outcome (control, treated, inhibition, significance)","Carcinogen: AZOXYMETHANE, 25843-45-2, 200 PPM IN DIET FOR 56 WK BEGINNING 2 WK PRIOR TO CARCINOGEN TREATMENT (STUDY DURATION: 56 WK), Species: RAT, Strain/Sex: F344/MALE, Target Tissue: Type of Lesion: COLON (DISTAL): TUMOR, Dose [Carcinogen]: 15 MG/KG 1/WK FOR 2 WK","47%, 28%, 40%, not significant"
same,"tumour outcome (control, treated, inhibition, significance)","Carcinogen: AZOXYMETHANE, 25843-45-2, 200 PPM IN DIET FOR 56 WK BEGINNING 2 WK PRIOR TO CARCINOGEN TREATMENT (STUDY DURATION: 56 WK), Species: RAT, Strain/Sex: F344/MALE, Target Tissue: Type of Lesion: COLON (PROXIMAL): TUMOR, Dose [Carcinogen]: 15 MG/KG 1/WK FOR 2 WK","39%, 30%, 23%, not significant"
